Structures can show the parent of a compound that is named as a salt.

The first assay deals with T1, human prion protein 91–231 (Homo sapiens, UniProt P04156).
T1 construct: gene PRNP
Nature of the assay: biochemical. It is filed as binding.
On to `COc1cc(-c2ccc(N=Nc3ccc4c(S(=O)(=O)O)cc(S(=O)(=O)O)c(N)c4c3O)c(OC)c2)ccc1N=Nc1ccc2c(S(=O)(=O)O)cc(S(=O)(=O)O)c(N)c2c1O` [Chicago Sky Blue 6B], for which the affinity, expressed as Kd, was 1.43 ± 0.24 µM.

Another assay deals with T2, human prion protein 23–231 (PrP, unlabeled wild type) (Homo sapiens, UniProt P04156).
T2 construct: gene PRNP
The assay can be described thus: biochemical. It counts as binding.
Compound `C[C@@H]1[C@H](O)[C@@H](C)/C=C/C=C/C=C/C=C/C=C/C=C/C=C/[C@H](O[C@@H]2O[C@H](C)[C@@H](O)[C@H](N)[C@@H]2O)C[C@@H]2O[C@](O)(C[C@@H](O)C[C@@H](O)[C@H](O)CC[C@@H](O)C[C@@H](O)CC(=O)O[C@H]1C)C[C@H](O)[C@H]2C(=O)O` [Amphotericin B] displayed an IC50 of 88.8 µM.

`O=C1c2c(O)cccc2Cc2cccc(O)c21` [Anthralin] had an IC50 of more than 100 µM. Still for that read-out and setting: as for `NC(CO)C(=O)NNCc1ccc(O)c(O)c1O` (stereo not shown) [Benserazide HCl], the figure is more than 100 µM.

As for `CC(C)/N=c1\cc2n(-c3ccc(Cl)cc3)c3ccccc3nc-2cc1Nc1ccc(Cl)cc1` [Clofazimine], the IC50 was more than 100 µM. Still for that read-out and setting: as for `CC[N+](C)(CC)CCC[n+]1c(-c2ccccc2)c2cc(N)ccc2c2ccc(N)cc21` [Propidium iodide], the figure is more than 100 µM. Still for that read-out and setting: as for `COc1cc(C(=O)NS(=O)(=O)c2ccccc2C)ccc1Cc1cn(C)c2ccc(NC(=O)OC3CCCC3)cc12` [Zafirlukast], the figure is 85.7 µM.
